Patent publication US20250188075A1, “SUBSTITUTED HETEROCYCLIC CSNK1 INHIBITORS” (The Broad Institute, Inc., priority 2022, published 2025)
Read-outs that look alike come from different tables or passages of the source.

Key:
human CSNK1D = human CSNK1D (Homo sapiens (Human), UniProt P48730); assay: CSNK1D assay (ADP-Glo, 1 μM ATP); type: biochemical; details: median, read-out: CSNK1D IC50 [mol/l] (median)
Experimental: CSNK1D-inhibitory activity of compounds of the present invention in presence of 1 μM adenosine-tri-phosphate (ATP) was quantified employing the CSNK1D assay as described in the following paragraphs. In essence, the enzyme activity is measured by quantification of the adenosine-di-phosphate (ADP), which is generated as a co-product of the enzyme reaction, via the “ADP-Glo™ Kinase Assay” kit from the company Promega. This detection system works as follows: In a first step the ATP not consumed in the kinase reaction is quantitatively converted to CAMP employing an adenylate cyclase (“ADP-Glo-reagent”), then the adenylate cyclase is stopped and the ADP generated in the kinase reaction converted to ATP which generates in a luciferase-based reaction a glow-luminescence signal (“Kinase Detection Reagent”).
Recombinant fusion protein of N-terminal Glutathion-S-Transferase (GST) and full-length human CSNK1D, expressed by baculovirus infected insect cells and purified via Glutathion affinity chromatography, was purchased from Life Technologies (product no. PV3665) and used as enzyme. As substrate for the kinase reaction the biotinylated peptide Btn-Ahx-SGSEGDSESGEEEG (C-terminus in amide form) was used which can be purchased e.g. from the company Biosyntan (Berlin-Buch, Germany).
For the assay 50 nl of a 100-fold concentrated solution of the test compound in DMSO was pipetted into a white 1536-well microtiter plate (Greiner Bio-One, Frickenhausen, Germany), 2 μL of a solution of CSNK1D in aqueous assay buffer [50 mM HEPES pH 7.5, 10% (v/v) glycerol, 10 mM MgCl2, 50 mM NaCl, 1 mM dithiothreitol, 0.01% (w/v) bovine serum albumin, 0.01% (v/v) Triton X-100] were added and the mixture was incubated for 15 min at 22° C. to allow pre-binding of the test compounds to the enzyme before the start of the kinase reaction. Then the kinase reaction was started by the addition of 3 μL of a solution of ATP (1.67 μM=>final conc. in the 5 μL assay volume is 1 μM) and peptide substrate (50 μM=>final conc. in the 5 μL assay volume is 30 μM) in assay buffer and the resulting mixture was incubated for a reaction time of 30 min at 22° C. The concentration of CSNK1D was adjusted depending of the activity of the enzyme lot and was chosen appropriate to have the assay in the linear range, a typical concentration is about 0.5 ng/μL. The reaction was stopped by the addition of 2.5 μL of “ADP-Glo-reagent” (1:1.5 fold diluted with water) and the resulting mixture was incubated at 22° C. for 1 h to convert the ATP not consumed in the kinase reaction completely to CAMP. Subsequently 2.5 μL of the “kinase detection reagent” (1.2 fold more concentrated than recommended by the producer) were added, the resulting mixture was incubated at 22° C. for 1 h and then the luminescence measured with a suitable measurement instrument (e.g. Viewlux™ from Perkin-Elmer). The amount of emitted light was taken as a measure for the amount of ADP generated and thereby for the activity of the CSNK1D.
The data were normalised (enzyme reaction without inhibitor=0% inhibition, all other assay components but no enzyme=100% inhibition).

total-p53 in MCF-7 cells = assay: HTRF total-p53 in MCF-7 cells; type: cell-based; details: median, read-out: HTRF total-p53 MCF-7, IC50 - [mol/l] (median)
Experimental: Day 1: MCF-7 cells were seeded (10,000 cells in 12 μl/well) in a 384-well-Small Volume-plate (Greiner Bio One #784075) in culture medium (RPMI 1640; (Biochrom; #F 1275; without PhenolRed)+FCS (final: 10%); (Biochrom; #S 0415)+Insulin (bovine); (final: 10 μg/mL, Biochrom; #K 3510)+L-Alanyl-L-Glutamine; (final: 2 mM, Biochrom; #K 0302)+Natriumpyruvat; (final: 1 mM, Biochrom; #L 0473)+Non Essentiell Amino Acids; (final: 1×, Biochrom; #K 0293)). The cells were then treated with different compounds or DMSO (added with the HP Dispenser) and incubated for 2 h at 37° C. Following incubation, the cells were lysed in 4 μl of lysis buffer for 1 h shaking at RT. Finally, 4 μl of antibody solution was added and the samples are incubated overnight at RT, shaking.
Total-p53 was detected in a sandwich assay format using 2 different specific antibodies, one labeled with Eu3+-Cryptate (donor) and the second with d2 (acceptor). Kit: HTRF total p53 detection assay (Cisbio Cat: 64T53PEG).
Day 2: the plate was read on PHERAstar FS (BMG Labtech settings; optic module: HTRF; integration start: 60 us; integration time: 400 μs; flash lamp). IC50 values were calculated using the DRC application in ShiNy Analysis Platform-SNAP.”

LoVo cells = assay: LoVo cell proliferation assay, CTG method; type: cell-based; details: 96 h, median, read-out: 2D-PROLI LoVo CTG 96 h, IC50 - [mol/l] (median)
Experimental: CELL PROLIFERATION ASSAY CTG METHOD, 384-well version: Day 1: plate 400 cells/30 μL/well in growth medium (RPMI 1640 (Gibco #61870-10; with Glutamax)+10% FBS) in 384-well black plates (Corning #3571). Plated sister wells in a separate plate for time zero determination. Incubated all plates overnight at 37° C. Day 2: added test compounds in serial dilutions using the HP D300 Digital Dispenser and incubate at 37° C. for 96 h. Measured time zero plate: add 30 μL/well CTG solution (Promega CellTiter-Glo solution (catalog #G7573)) to wells in time zero plate; incubated for 2 minutes in a orbital shaker to induce cell lysis; allowed the plate to incubate at room temperature for additional 10 min to stabilize luminescent signal and read luminescence on PheraStar (rapid mode-0.02 sec/well; GAIN 3000). Day 6: Added 30 μL/well CTG solution to all test wells, incubated for 2 minutes in a orbital shaker to induce cell lysis; allowed the plate to incubate at room temperature for additional 10 min to stabilize luminescent signal and read luminescence on PheraStar (rapid mode-0.02 sec/well; GAIN 3000). Proliferation IC50s were calculated using the DRC application in ShiNy Analysis Platform-SNAP.”

[1] = Homo sapiens, MCF7, 2 h incubation

Sequence of human CSNK1D (P48730 whole entry): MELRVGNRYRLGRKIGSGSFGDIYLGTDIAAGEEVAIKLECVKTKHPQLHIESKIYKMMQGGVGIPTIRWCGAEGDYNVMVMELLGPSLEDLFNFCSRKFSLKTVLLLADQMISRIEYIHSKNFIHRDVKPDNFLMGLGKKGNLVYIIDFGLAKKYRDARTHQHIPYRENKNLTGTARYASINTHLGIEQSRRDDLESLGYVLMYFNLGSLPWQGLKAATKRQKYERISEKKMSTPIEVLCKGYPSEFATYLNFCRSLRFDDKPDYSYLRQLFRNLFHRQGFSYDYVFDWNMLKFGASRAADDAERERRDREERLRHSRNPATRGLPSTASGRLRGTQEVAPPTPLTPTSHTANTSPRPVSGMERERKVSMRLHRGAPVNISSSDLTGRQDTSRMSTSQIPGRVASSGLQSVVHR

| Structure (SMILES) | IC50 (human CSNK1D) [nM] | IC50 (total-p53 in MCF-7 cells; [1]) [nM] | IC50 (LoVo cells; Homo sapiens) [nM] | IC50 (total-p53 in MCF-7 cells; 2 h incubation) [nM] | IC50 (LoVo cells) [nM] |
| --- | --- | --- | --- | --- | --- |
| Cc1cc(CC(=O)Nc2cc(-c3[nH]c4cccnc4c3-c3ccccn3)ccn2)on1 [Example 13, 2-(3-methylisoxazol-5-yl)-N-[4-[3-(2-pyridyl)-^1H-pyrrolo[3,2-b]pyridin-2-yl]-2-pyridyl]acetamide] | 5.68 | 152 | 3140 |  |  |
| Cc1nc(C)c(CC(=O)Nc2cc(-c3[nH]c4cccnc4c3-c3ccccn3)ccn2)s1 [Example 18, 2-(2,4-dimethylthiazol-5-yl)-N-[4-[3-(2-pyridyl)-^1H-pyrrolo[3,2-b]pyridin-2-yl]-2-pyridyl]acetamide] | 3.8 | 56.6 | 1130 |  |  |
| O=C(Nc1cc(-c2[nH]c3ccc(F)nc3c2-c2ccccn2)ccn1)[C@@H](CC(F)F)c1ccc(F)cc1 [Example C2, reference compound] | 2.26 |  |  | 72.4 | 115 |
| Cc1nocc1CC(=O)Nc1cc(-c2[nH]c3cccnc3c2-c2ccccn2)ccn1 [Example 30, 2-(3-methylisoxazol-4-yl)-N-[4-[3-(2-pyridyl)-^1H-pyrrolo[3,2-b]pyridin-2-yl]-2-pyridyl]acetamide] | 6.69 | 226 | 10500 |  |  |
| Cc1ncc(CC(=O)Nc2cc(-c3[nH]c4cccnc4c3-c3ccccn3)ccn2)o1 [Example 24, 2-(2-methyloxazol-5-yl)-N-[4-[3-(2-pyridyl)-^1H-pyrrolo[3,2-b]pyridin-2-yl]-2-pyridyl]acetamide] | 5.37 | 174 | 2380 |  |  |
| Cc1ocnc1CC(=O)Nc1cc(-c2[nH]c3cccnc3c2-c2ccccn2)ccn1 [Example 11, 2-(5-methyloxazol-4-yl)-N-[4-[3-(2-pyridyl)-^1H-pyrrolo[3,2-b]pyridin-2-yl]-2-pyridyl]acetamide] | 8.09 | 375 | 3320 |  |  |
| O=C(Nc1cc(-c2[nH]c3c(OCC(F)F)ncnc3c2-c2ccccn2)ccn1)[C@@H](CC(F)F)c1ccc(F)cc1 [Example C3, reference compound] | 3.27 |  |  | 97.9 | 115 |
| O=C(Cc1cc(C2CC2)on1)Nc1cc(-c2[nH]c3cccnc3c2-c2ccccn2)ccn1 [Example 27, 2-(5-cyclopropylisoxazol-3-yl)-N-[4-[3-(2-pyridyl)-^1H-pyrrolo[3,2-b]pyridin-2-yl]-2-pyridyl]acetamide] | 6.38 | 169 | 749 |  |  |
| Cn1nc(CC(=O)Nc2cc(-c3[nH]c4cccnc4c3-c3ccccn3)ccn2)cc1C(F)(F)F [Example 21, 2-[1-methyl-5-(trifluoromethyl)pyrazol-3-yl]-N-[4-[3-(2-pyridyl)-^1H-pyrrolo[3,2-b]pyridin-2-yl]-2-pyridyl]acetamide] | 4.88 | 96.9 | 427 |  |  |
| O=C(Nc1cc(-c2[nH]c3nccnc3c2-c2ccccn2)ccn1)[C@@H](CC(F)F)c1ccc(F)cc1 [Example C1, reference compound] | 3.92 |  |  | 72.8 | 211 |

Continued, values first:

| IC50 (human CSNK1D) [nM] | IC50 (total-p53 in MCF-7 cells; [1]) [nM] | IC50 (LoVo cells; Homo sapiens) [nM] | IC50 (total-p53 in MCF-7 cells; 2 h incubation) [nM] | IC50 (LoVo cells) [nM] | Structure (SMILES) |
| --- | --- | --- | --- | --- | --- |
| 3.75 | 69.3 | 192 |  |  | O=C(Cc1cc2ccccn2n1)Nc1cc(-c2[nH]c3cccnc3c2-c2ccccn2)ccn1 [Example 15, 2-pyrazolo[1,5-a]pyridin-2-yl-N-[4-[3-(2-pyridyl)-^1H-pyrrolo[3,2-b]pyridin-2-yl]-2-pyridyl]acetamide] |
| 8.44 | 321 | 2110 |  |  | Cc1nc(CC(=O)Nc2cc(-c3[nH]c4cccnc4c3-c3ccccn3)ccn2)co1 [Example 25, 2-(2-methyloxazol-4-yl)-N-[4-[3-(2-pyridyl)-^1H-pyrrolo[3,2-b]pyridin-2-yl]-2-pyridyl]acetamide] |
| 6.57 | 193 | 1500 |  |  | Cc1cc(CC(=O)Nc2cc(-c3[nH]c4cccnc4c3-c3ccccn3)ccn2)nn1C [Example 16, 2-(1,5-dimethylpyrazol-3-yl)-N-[4-[3-(2-pyridyl)-^1H-pyrrolo[3,2-b]pyridin-2-yl]-2-pyridyl]acetamide] |
| 13.1 | 924 | 7430 |  |  | Cn1cnc(CC(=O)Nc2cc(-c3[nH]c4cccnc4c3-c3ccccn3)ccn2)c1 [Example 5, 2-(1-methylimidazol-4-yl)-N-[4-[3-(2-pyridyl)-^1H-pyrrolo[3,2-b]pyridin-2-yl]-2-pyridyl]acetamide] |
| 6.64 | 176 | 2100 |  |  | Cc1cc(CC(=O)Nc2cc(-c3[nH]c4cccnc4c3-c3ccccn3)ccn2)no1 [Example 26, 2-(5-methylisoxazol-3-yl)-N-[4-[3-(2-pyridyl)-^1H-pyrrolo[3,2-b]pyridin-2-yl]-2-pyridyl]acetamide] |
| 6.48 | 199 | 782 |  |  | Cn1nc(CC(=O)Nc2cc(-c3[nH]c4cccnc4c3-c3ccccn3)ccn2)cc1C1CC1 [Example 29, 2-(5-cyclopropyl-1-methyl-pyrazol-3-yl)-N-[4-[3-(2-pyridyl)-^1H-pyrrolo[3,2-b]pyridin-2-yl]-2-pyridyl]acetamide] |
| 6.3 | 129 | 636 |  |  | CC(C)n1ccc(CC(=O)Nc2cc(-c3[nH]c4cccnc4c3-c3ccccn3)ccn2)n1 [Example 28, 2-(1-isopropylpyrazol-3-yl)-N-[4-[3-(2-pyridyl)-^1H-pyrrolo[3,2-b]pyridin-2-yl]-2-pyridyl]acetamide] |
| 11.4 | 193 | 12400 |  |  | O=C(Cc1cnc2ccccn12)Nc1cc(-c2[nH]c3cccnc3c2-c2ccccn2)ccn1 [Example 1, 2-imidazo[1,2-a]pyridin-3-yl-N-[4-[3-(2-pyridyl)-^1H-pyrrolo[3,2-b]pyridin-2-yl]-2-pyridyl]acetamide] |
